Assay results taken from patent publication US20170114030A1, “COMPOSITION WITH HIGH CONTENT OF CYCLIC DIPEPTIDE” (SUNTORY HOLDINGS LIMITED, priority 2014, published 2017).

System: NCI-H716 cells
Test: In vitro GLP-1 secretion-accelerating action (active GLP-1 ELISA)
Format: cell-based
Conditions: for Significant difference (p < 0.05) vs control group, amount of active GLP-1 secreted: 1 hour, Student's t-test; for Amount of active GLP-1 secreted (relative value to control group as 100), Average value: after 1 hour, group with no cyclic dipeptide = 100
Experimental: In the Test Examples below, data were represented as average value±standard error. In Test Examples 1, 2, and 3, a Student's t-test was used for a statistical test, and in other Test Examples, one-way ANOVA was carried out for dispersion analysis followed by a multiple comparison test by using a Dunnet's test. […] All of these analyses were carried out by using an SPSS for Windows release 17.0 (manufactured by SPSS Inc.).
Among the cyclic dipeptides, 92 highly water-soluble cyclic dipeptides were used in the following experiment. In each well of a Poly-L-Lysine 96-well plate, NCI-H716 cells suspended in 100 μL of a DMEM (with 10% FBS, 2 mM glutamine, and 1% antibiotics added in advance) were seeded at 0.5×10^5 cells/well, and cultured in a CO2 incubator (manufactured by ESPEC CORP.) for 48 hours. After washing with PBS(+), 100 μL of a PBS(+) solution with each cyclic dipeptide at a final concentration of 10 mM and 10 μM of Sitagliptin phosphate added therein was added to the cells. After 1 hour, the resultant solution was recovered, and the amount of active GLP-1 in the solution was measured by using the ELISA kit. In the analysis, the amount of active GLP-1 for a group with no cyclic dipeptide added was defined as 100, and relative values thereto were used.
In each Table, cyclic dipeptides for which an in vitro active GLP-1 secretion-accelerating activity was found and was not found are listed.

[1] = Experiment 3, cyclic dipeptide 10 mM with 10 μM Sitagliptin phosphate
[2] = Experiment 4, cyclic dipeptide 10 mM with 10 μM Sitagliptin phosphate
[3] = Experiment 5, cyclic dipeptide 10 mM with 10 μM Sitagliptin phosphate

Compound	Significant difference (p < 0.05) vs control group, amount of active GLP-1 secreted (Experiment 3, 10 mM)	Amount of active GLP-1 secreted (relative value to control group as 100), Average value [1]	further results
CC(O)C1NC(=O)C(CCC(N)=O)NC1=O (stereo not shown) [compound 167]	No	156	–
NCCCCC1NC(=O)C(CCC(=O)O)NC1=O (stereo not shown) [compound 97]	No	66	–
CC(O)C1NC(=O)C(CC(N)=O)NC1=O (stereo not shown) [compound 166]	No	149	–
N=C(N)NCCCC1NC(=O)C(Cc2c[nH]c3ccccc23)NC1=O (stereo not shown) [compound 189]	–	–	Significant difference (p < 0.05) vs control group, amount of active GLP-1 secreted (Experiment 4, 10 mM): Yes; Amount of active GLP-1 secreted (relative value to control group as 100), Average value [2]: 314
N=C(N)NCCCC1NC(=O)C(CO)NC1=O (stereo not shown) [compound 159]	Yes	135	–
CC(O)C1NC(=O)C(CC(=O)O)NC1=O (stereo not shown) [compound 165]	No	140	–
NC(=O)CCC1NC(=O)C(CCC(=O)O)NC1=O (stereo not shown) [compound 130]	No	120	–
O=C1N[C@@H](CO)C(=O)N2CCC[C@@H]12 [compound 46]	–	–	Significant difference (p < 0.05) vs control group, amount of active GLP-1 secreted (Experiment 2, 10 mM): No; Amount of active GLP-1 secreted (relative value to control group as 100), Average value (Experiment 2, cyclic dipeptide 10 mM with 10 μM Sitagliptin phosphate): 139
CC(C)C1NC(=O)C(CCCCN)NC1=O (stereo not shown) [compound 99]	Yes	532	–
N=C(N)NCCCC1NC(=O)C(CC(N)=O)NC1=O (stereo not shown) [compound 197]	–	–	Significant difference (p < 0.05) vs control group, amount of active GLP-1 secreted (Experiment 4, 10 mM): Yes; Amount of active GLP-1 secreted (relative value to control group as 100), Average value [2]: 359
N=C(N)NCCCC1NC(=O)C(Cc2cnc[nH]2)NC1=O (stereo not shown) [compound 112]	No	106	–
CSCCC1NC(=O)C(CCC(N)=O)NC1=O (stereo not shown) [compound 186]	–	–	Significant difference (p < 0.05) vs control group, amount of active GLP-1 secreted (Experiment 4, 10 mM): Yes; Amount of active GLP-1 secreted (relative value to control group as 100), Average value [2]: 191
O=C(O)CC1NC(=O)CNC1=O (stereo not shown) [compound 32]	–	–	Significant difference (p < 0.05) vs control group, amount of active GLP-1 secreted (Experiment 5, 10 mM): Yes; Amount of active GLP-1 secreted (relative value to control group as 100), Average value [3]: 12
O=C1NCC(=O)N2CCCC12 (stereo not shown) [compound 4]	–	–	Significant difference (p < 0.05) vs control group, amount of active GLP-1 secreted (Experiment 5, 10 mM): Yes; Amount of active GLP-1 secreted (relative value to control group as 100), Average value [3]: 157
NCCCC[C@@H]1NC(=O)[C@H](CCCCN)NC1=O [compound 40]	–	–	Significant difference (p < 0.05) vs control group, amount of active GLP-1 secreted (Experiment 1, 10 mM): No; Amount of active GLP-1 secreted (relative value to control group as 100), Average value (Experiment 1, cyclic dipeptide 10 mM with 10 μM Sitagliptin phosphate): 164
NC(=O)CC1NC(=O)C(CCC(=O)O)NC1=O (stereo not shown) [compound 129]	No	118	–
O=C1CNC(=O)C(CO)N1 (stereo not shown) [compound 154]	No	116	–
CC1NC(=O)C(CCC(=O)O)NC1=O (stereo not shown) [compound 113]	No	157	–
O=C(O)CCC1NC(=O)C(CO)NC1=O (stereo not shown) [compound 192]	–	–	Amount of active GLP-1 secreted (relative value to control group as 100), Average value [2]: 993
